Results taken from PMC10342305, “Identification of N-Acyl Hydrazones as New Non-Zinc-Binding MMP-13 Inhibitors by Structure-Based Virtual Screening Studies and Chemical Optimization” (International Journal of Molecular Sciences, 2023).
One block for each molecule: values may come before it.

How the values were obtained:
MMP-14 = target: T1, MMP-14 (Homo sapiens, UniProt P50281); assay: Fluorometric enzyme inhibition assay on MMP-14 catalytic domain; type: biochemical; conditions: mean ± SD of three independent experiments
T1 construct: Recombinant human MMP-14 catalytic domain; gift from Prof; Gillian Murphy (Department of Oncology, University of Cambridge, UK)
Description: (§1) Recombinant human MMP-14 catalytic domain was a kind gift from Prof. Gillian Murphy (Department of Oncology, University of Cambridge, UK). Pro-MMP-1, pro-MMP-2, pro-MMP-9, and pro-MMP-13 were purchased from Merck Millipore (Burlington, MA, USA). p-Aminophenylmercuric acetate (APMA) was from Sigma-Aldrich (St. Louis, MO, USA).
(§2) For assay measurements, the purchased compound stock solutions (10 mM in DMSO) were further diluted for each MMP in the fluorometric assay buffer (FAB: Tris 50 mM, pH = 7.5, NaCl 150 mM, CaCl2 10 mM, Brij 35 0.05%, and DMSO 1%), following the protocol already reported. […] The assays were performed in triplicate with a total volume of 200 μL per well in 96-well microtitre plates (Corning, black, NBS, Turin, Italy). The MMP inhibition activity was expressed in relative fluorescent units (RFU). The percentage of inhibition was calculated from control reactions without the inhibitor. The inhibitory effect of the tested compounds was routinely estimated at a concentration of 100 μM on MMP-13. […] Results were analyzed using SoftMax Pro software version 5.4.3 (Molecular Devices, Sunnyvale, CA, USA) and Prism Software version 5.0 (GraphPad Software, Inc., La Jolla, CA, USA).

MMP-1 = target: T2, MMP-1 (Homo sapiens, UniProt P03956); assay: Fluorometric enzyme inhibition assay on MMP-1
T2 sequence (P03956 100-469): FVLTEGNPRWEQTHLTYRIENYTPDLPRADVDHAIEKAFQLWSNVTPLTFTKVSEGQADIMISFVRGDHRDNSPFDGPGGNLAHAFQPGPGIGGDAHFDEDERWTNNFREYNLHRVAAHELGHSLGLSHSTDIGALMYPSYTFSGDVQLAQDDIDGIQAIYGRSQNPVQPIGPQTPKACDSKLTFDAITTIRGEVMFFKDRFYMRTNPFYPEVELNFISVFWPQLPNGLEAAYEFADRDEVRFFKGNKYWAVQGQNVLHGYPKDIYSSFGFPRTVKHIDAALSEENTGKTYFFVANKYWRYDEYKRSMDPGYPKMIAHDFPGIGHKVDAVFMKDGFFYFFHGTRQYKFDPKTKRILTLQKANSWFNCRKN

MMP-2 = target: T3, MMP-2 (Homo sapiens, UniProt P08253); assay: Fluorometric enzyme inhibition assay on MMP-2
T3 sequence (P08253 110-660): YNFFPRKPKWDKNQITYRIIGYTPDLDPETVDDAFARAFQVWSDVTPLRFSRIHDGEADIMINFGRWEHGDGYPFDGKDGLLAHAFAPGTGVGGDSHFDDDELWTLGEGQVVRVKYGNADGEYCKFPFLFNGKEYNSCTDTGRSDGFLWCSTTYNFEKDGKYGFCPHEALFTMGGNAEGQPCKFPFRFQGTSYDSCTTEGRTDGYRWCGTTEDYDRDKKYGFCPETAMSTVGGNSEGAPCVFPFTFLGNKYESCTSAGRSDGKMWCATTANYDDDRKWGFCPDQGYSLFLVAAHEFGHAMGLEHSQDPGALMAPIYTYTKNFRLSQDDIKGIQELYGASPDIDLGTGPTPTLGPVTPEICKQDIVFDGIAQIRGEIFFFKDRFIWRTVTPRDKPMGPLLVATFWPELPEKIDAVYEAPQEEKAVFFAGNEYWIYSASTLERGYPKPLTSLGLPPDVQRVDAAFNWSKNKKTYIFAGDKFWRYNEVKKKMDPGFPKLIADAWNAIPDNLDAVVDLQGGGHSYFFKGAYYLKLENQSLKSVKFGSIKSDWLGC

MMP-9 = MMP-9 (Homo sapiens, UniProt P14780); assay: Fluorometric enzyme inhibition assay on MMP-9
MMP-13 = target: T4, MMP-13 (Homo sapiens, UniProt P45452); assay: Fluorometric enzyme inhibition assay on MMP-13; type: biochemical; conditions: mean ± SD of three independent experiments
T4 construct: purchased Merck Millipore (Burlington, MA, USA)
From the text: ARP100 [26], a hydroxamate-based MMP inhibitor previously developed by our research group, was used in the same assay conditions as the reference compound.
as §1, §2

MMP-9, sequence (P14780 107-707 limits assumed): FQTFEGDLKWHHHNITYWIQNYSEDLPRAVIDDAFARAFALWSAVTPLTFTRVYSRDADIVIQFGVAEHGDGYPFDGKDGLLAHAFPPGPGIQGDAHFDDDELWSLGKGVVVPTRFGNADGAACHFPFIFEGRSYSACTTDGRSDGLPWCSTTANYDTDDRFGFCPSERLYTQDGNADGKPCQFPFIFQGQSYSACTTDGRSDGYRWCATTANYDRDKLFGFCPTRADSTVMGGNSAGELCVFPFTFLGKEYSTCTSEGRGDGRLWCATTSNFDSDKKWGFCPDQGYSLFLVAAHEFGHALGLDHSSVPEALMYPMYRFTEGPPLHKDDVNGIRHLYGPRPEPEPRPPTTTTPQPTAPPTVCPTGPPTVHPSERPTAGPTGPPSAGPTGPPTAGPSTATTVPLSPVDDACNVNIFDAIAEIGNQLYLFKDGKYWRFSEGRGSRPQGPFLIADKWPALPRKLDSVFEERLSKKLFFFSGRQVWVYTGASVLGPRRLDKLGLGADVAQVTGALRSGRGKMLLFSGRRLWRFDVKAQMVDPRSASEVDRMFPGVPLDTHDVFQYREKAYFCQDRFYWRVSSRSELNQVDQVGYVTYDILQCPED

SMILES: O=C(Cc1ccc([N+](=O)[O-])cc1)N/N=C/c1ccc(NC(=O)c2ccc(Br)o2)cc1 [Compound 13c, (E)-5-bromo-N-(4-((2-(2-(4-nitrophenyl)acetyl)hydrazineylidene)methyl)phenyl)furan-2-carboxamide]
- melting point: 277 to 279 °C

SMILES: C/C(=N\NC(=O)Cc1ccc(C(=O)O)cc1)c1ccc(NC(=O)c2ccc(Br)o2)cc1 [Compound 13h, (E)-4-(2-(2-(1-(4-(5-bromofuran-2-carboxamido)phenyl)ethylidene)hydrazineyl)-2-oxoethyl)benzoic acid]
- melting point: 292 to 295 °C

SMILES: O=C(COC(=O)c1ccccc1Sc1ccc([N+](=O)[O-])cc1)c1ccc(-c2ccccc2)cc1 [Compound 12]
- IC50 (MMP-14): 67 ± 4.6 µM
- IC50 (MMP-1): 75 ± 4 µM
- IC50 (MMP-2): 47 ± 1.6 µM
- IC50 (MMP-9): 72 ± 4.8 µM

SMILES: C/C(=N\NC(=O)Cc1ccc([N+](=O)[O-])cc1)c1ccc(NC(=O)c2ccc(CO)o2)cc1 [Compound 13b, (E)-5-(hydroxymethyl)-N-(4-(1-(2-(2-(4nitrophenyl)acetyl)hydrazineylidene)ethyl)phenyl) furan-2-carboxamide]
- IC50 (MMP-13): > 100 µM
- melting point: 238 to 241 °C

SMILES: C/C(=N\NC(=O)Cc1ccc(-c2nc(C)no2)cc1)c1ccc(NC(=O)c2ccc(CO)o2)cc1 [Compound 13f, (E)-5-(hydroxymethyl)-N-(4-(1-(2-(2-(4-(3-methyl-1,2,4-oxadiazol-5-yl)phenyl)acetyl)hydrazineylidene)ethyl)phenyl)furan-2-carboxamide]
- melting point: 243 to 246 °C

SMILES: C/C(=N\NC(=O)Cc1ccc(-c2nc(C)no2)cc1)c1ccc(NC(=O)c2ccc(Br)o2)cc1 [Compound 13e, (E)-5-bromo-N-(4-(1-(2-(2-(4-(3-methyl-1,2,4-oxadiazol-5-yl)phenyl)acetyl)hydrazineylidene)ethyl)phenyl)furan-2-carboxamide]
- IC50 (MMP-13): > 100 µM
- melting point: 252 to 255 °C

SMILES: C/C(=N\NC(=O)Cc1ccc([N+](=O)[O-])cc1)c1ccc(NC(=O)c2ccc(S(N)(=O)=O)o2)cc1 [Compound 13a]
- IC50 (MMP-13): > 100 µM
- melting point: 255 to 258 °C

SMILES: C/C(=N\NC(=O)Cc1ccc([N+](=O)[O-])cc1)c1ccc(NC(=O)c2ccc(Br)o2)cc1 [Compound 13, (E)-5-bromo-N-(4-(1-(2-(2-(4-nitrophenyl)acetyl)hydrazineylidene)ethyl)phenyl)furan-2-carboxamide]
- IC50 (MMP-14): 63 ± 5.4 µM
- IC50 (MMP-1): 91 ± 0.8 µM
- IC50 (MMP-2): 99 ± 6 µM
- IC50 (MMP-9): 68 ± 3 µM

SMILES: O=C(Cc1ccc([N+](=O)[O-])cc1)N/N=C/c1ccc(NC(=O)c2ccc(CO)o2)cc1 [Compound 13d, (E)-5-(hydroxymethyl)-N-(4-((2-(2-(4-nitrophenyl)acetyl)hydrazineylidene)methyl)phenyl) furan-2-carboxamide]
- IC50 (MMP-13): 40 ± 3.5 µM
- melting point: 246 to 248 °C

SMILES: Cc1noc(-c2ccc(CC(=O)N/N=C/c3ccc(NC(=O)c4ccc(CO)o4)cc3)cc2)n1 [Compound 13g, (E)-5-(hydroxymethyl)-N-(4-((2-(2-(4-(3-methyl-1,2,4-oxadiazol-5-yl)phenyl)acetyl) hydrazono)methyl)phenyl)furan-2-carboxamide]
- melting point: 232 to 235 °C

SMILES: N#C/C(=C\c1cn(Cc2ccc(Cl)cc2)c2ccccc12)c1nn(-c2ccccc2)c(N)c1C#N [Compound 11]
- IC50 (MMP-14): 94 ± 5.5 µM
- IC50 (MMP-1): 99 ± 8 µM
- IC50 (MMP-2): 60 ± 4.6 µM
- IC50 (MMP-9): 66 ± 4.6 µM

The remaining lines, values ahead:

- IC50 (MMP-14): > 200 µM
- IC50 (MMP-1): 177 ± 20 µM
- IC50 (MMP-2): 3.6 ± 0.4 µM
- IC50 (MMP-9): 50 ± 3.2 µM
SMILES: O=C(Cc1ccc(C(=O)O)cc1)N/N=C/c1ccc(CNC(=O)c2ccc(Br)o2)cc1 [Compound 13m, (E)-4-(2-(2-(4-((5-bromofuran-2-carboxamido)methyl)benzylidene)hydrazineyl)-2-oxoethyl)benzoic acid]

- melting point: 307 to 310 °C
SMILES: O=C(Cc1ccc(C(=O)O)cc1)N/N=C/c1ccc(NC(=O)c2ccc(Br)o2)cc1 [Compound 13l, (E)-4-(2-(2-(4-(5-bromofuran-2-carboxamido)benzylidene)hydrazineyl)-2-oxoethyl)benzoic acid]

- melting point: 245 to 248 °C
SMILES: O=C(Cc1ccc(-c2nnn[nH]2)cc1)N/N=C/c1ccc(CNC(=O)c2ccc(Br)o2)cc1 [Compound 13o, (E)-N-(4-((2-(2-(4-(1H-tetrazol-5-yl)phenyl)acetyl)hydrazineylidene)methyl)benzyl)-5-bromofuran-2-carboxamide]

- melting point: 262 to 265 °C
SMILES: O=C(Cc1ccc(-c2nnn[nH]2)cc1)N/N=C/c1ccc(NC(=O)c2ccc(Br)o2)cc1 [Compound 13n, (E)-N-(4-((2-(2-(4-(1H-tetrazol-5-yl)phenyl)acetyl)hydrazineylidene)methyl)phenyl)-5-bromofuran-2-carboxamide]

- melting point: 232 to 235 °C
SMILES: C/C(=N\NC(=O)Cc1ccc(C(=O)O)cc1)c1ccc(NC(=O)c2ccc(CO)o2)cc1 [Compound 13i, (E)-4-(2-(2-(1-(4-(5-(hydroxymethyl)furan-2-carboxamido)phenyl)ethylidene)hydrazineyl)-2-oxoethyl)benzoic acid]
